Results reported in patent publication US20250195521A1 (Revolution Medicines, Inc., priority 2020, published 2025).
Like-named read-outs stand apart in the source and are kept apart here. One block for each molecule: values may come before it.

Experiments:
[1] = target: NRAS Q61R binding to BRAF RBD (Homo sapiens (Human), UniProt P01111+P62937, Q61R); test: Ras-Raf disruption/FRET/MOA assay, NRAS Q61R; type: biochemical
Excerpt: (§1) Disruption of B-Raf Ras-binding Domain (BRAF^RBD) Interaction with K-Ras by Compounds of the Invention (also called a FRET assay or an MOA assay)
(§2) Note—The following protocol describes a procedure for monitoring disruption of K-Ras G12C(GMP-PNP) binding to BRAF^RBD by a compound of the invention. This protocol may also be executed substituting other Ras proteins or nucleotides.
(§3) The purpose of this biochemical assay was to measure the ability of test compounds to facilitate ternary complex formation between a nucleotide-loaded K-Ras isoform and Cyclophilin A; the resulting ternary complex disrupts binding to a BRAF^RBD construct, inhibiting K-Ras signaling through a RAF effector. Data is reported as IC50 values.
(§4) In assay buffer containing 25 mM HEPES pH 7.3, 0.002% Tween20, 0.1% BSA, 100 mM NaCl and 5 mM MgCl2, tagless Cyclophilin A, His6-K-Ras-GMPPNP, and GST-BRAF^RBD were combined in a 384-well assay plate at final concentrations of 25 μM, 12.5 nM and 50 nM, respectively. Compound was present in plate wells as a 10-point 3-fold dilution series starting at a final concentration of 30 μM. After incubation at 25° C. for 3 hours, a mixture of Anti-His Eu—W1024 and anti-GST allophycocyanin was then added to assay sample wells at final concentrations of 10 nM and 50 nM, respectively, and the reaction incubated for an additional 1.5 hours. […] Compounds that facilitate disruption of a K-Ras: RAF complex were identified as those eliciting a decrease in the TR-FRET ratio relative to DMSO control wells.

[2] = target: NRAS WT binding to BRAF RBD (Homo sapiens (Human), UniProt P01111+P62937); test: Ras-Raf disruption/FRET/MOA assay, NRAS WT; type: biochemical
Excerpt: as §1, §2, §3, §4

[3] = target: NRAS Q61K binding to BRAF RBD (Homo sapiens (Human), UniProt P01111+P62937, Q61K); test: Ras-Raf disruption/FRET/MOA assay, NRAS Q61K; type: biochemical
Excerpt: as §1, §2, §3, §4

[4] = target: KRAS Q61H binding to BRAF RBD (Homo sapiens (Human), UniProt P01116+P62937, Q61H); test: Ras-Raf disruption/FRET/MOA assay, KRAS Q61H; type: biochemical
Excerpt: as §1, §2, §3, §4

[5] = 18-membered ring

Sequence of NRAS Q61R binding to BRAF RBD (P01111 whole entry Q61R, the tested form may be a part): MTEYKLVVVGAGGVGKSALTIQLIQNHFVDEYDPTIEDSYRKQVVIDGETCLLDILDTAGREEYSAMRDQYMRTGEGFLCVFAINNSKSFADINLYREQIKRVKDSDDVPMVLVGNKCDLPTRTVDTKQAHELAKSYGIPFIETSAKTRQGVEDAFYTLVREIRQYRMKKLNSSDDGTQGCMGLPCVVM
Sequence of NRAS Q61R binding to BRAF RBD (P62937 whole entry, the tested form may be a part): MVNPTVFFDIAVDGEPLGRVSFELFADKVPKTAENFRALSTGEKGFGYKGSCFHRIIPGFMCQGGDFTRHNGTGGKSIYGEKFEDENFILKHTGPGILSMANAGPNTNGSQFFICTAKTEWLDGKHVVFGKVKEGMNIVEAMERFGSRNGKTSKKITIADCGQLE
Sequence of NRAS Q61K binding to BRAF RBD (P01111 whole entry Q61K): as the sequence (P01111 whole entry Q61R, the tested form may be a part) above, with R61K counted along it
Sequence of NRAS Q61K binding to BRAF RBD (P62937 whole entry): as the sequence (P62937 whole entry, the tested form may be a part) above
Sequence of NRAS WT binding to BRAF RBD (P01111 whole entry): as the sequence (P01111 whole entry Q61R, the tested form may be a part) above, with R61Q counted along it
Sequence of NRAS WT binding to BRAF RBD (P62937 whole entry): as the sequence (P62937 whole entry, the tested form may be a part) above
Sequence of KRAS Q61H binding to BRAF RBD (P01116 other isoform, or with tags, fused parts or gaps Q61H): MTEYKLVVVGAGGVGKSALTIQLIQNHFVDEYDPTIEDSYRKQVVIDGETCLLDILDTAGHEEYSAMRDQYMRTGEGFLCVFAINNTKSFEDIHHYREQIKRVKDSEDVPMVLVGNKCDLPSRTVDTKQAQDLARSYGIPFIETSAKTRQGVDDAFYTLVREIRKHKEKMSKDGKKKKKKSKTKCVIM
Sequence of KRAS Q61H binding to BRAF RBD (P62937 whole entry): as the sequence (P62937 whole entry, the tested form may be a part) above

- IC50 [1]: 1 to 10 µM
- IC50 [2]: 1 to 10 µM
- IC50 [3]: 1 to 10 µM
- IC50 [4]: 1 to 10 µM
Molecule: C=C(C)C(=O)N1CC(N(C)C(=O)N(C)[C@H](C(=O)N[C@H]2Cc3nc(cs3)-c3ccc4c(c3)c(c(-c3cccnc3[C@H](C)OC)n4CC)CC(C)(C)COC(=O)[C@@H]3CCCN(N3)C2=O)C(C)C)C1 [Compound A359]

Molecule: (6^3S,3S,4S,Z)-4-(dibenzylamino)-1^1-ethyl-3-methoxy-1^2-(2-((S)-1-methoxyethyl) pyridin-3-yl)-10, 10-dimethyl-6^1,6^2,6^3,6^4,6^5,6^6-hexahydro-1^1H-8-oxa-2 (4,2)-thiazola-1 (5,3)-indola-6 (1,3)-pyridazinacycloundecaphane-5,7-dione
- ring closure, isolated yield ([5]; cc_pd bond, Pd(DtBPF)Cl2/K3PO4, dioxane/H2O 5:1, 40.0 mM, 80.0 °C): 44.4%

Molecule: (9H-fluoren-9-yl) methyl (1R,5S,7r)-7-(5-((6^3S,3S,4S,Z)-4-((tert-butoxycarbonyl) amino)-3-ethoxy-1^1-ethyl-10, 10-dimethyl-5,7-dioxo-6^1,6^2,6^3,6^4,6^5,6^6-hexahydro-1^1H-8-oxa-2 (4,2)-thiazola-1 (5,3)-indola-6 (1,3)-pyridazinacycloundecaphane-12-yl)-6-((S)-1-methoxyethyl) pyridin-3-yl)-3-oxa-9-azabicyclo[3.3.1]nonane-9-carboxylate
- ring closure, isolated yield ([5]; cc_pd bond, Pd(DtBPF)Cl2/K3PO4, toluene/1,4-dioxane/H2O (3:1:1), […], 80.0 °C): 65%

Molecule: (9H-fluoren-9-yl) methyl ((6^3S,4S,Z)-3-(dimethylamino)-1^1-ethyl-1^2-(2-((S)-1-methoxyethyl) pyridin-3-yl)-10, 10-dimethyl-5,7-dioxo-6^1,6^2,6^3,6^4,6^5,6^6-hexahydro-1^1H-8-oxa-2 (4,2)-thiazola-1 (5,3)-indola-6 (1,3)-pyridazinacycloundecaphane-4-yl) carbamate
- ring closure, isolated yield ([5]; cc_pd bond, Pd(dtbpf)Cl2/K3PO4, toluene/1,4-dioxane/H2O 3:1:1, 27.3 mM, 60.0 °C): 19%

Molecule: (9H-fluoren-9-yl)methyl-7-(5-((6^3S,3S,4S,Z)-4-((tert-butoxycarbonyl) amino)-3-ethoxy-1^1-ethyl-10,10-dimethyl-5,7-dioxo-6^1,6^2,6^3,6^4,6^5,6^6-hexahydro-1^1H-8-oxa-2 (4,2)-thiazola-1 (5,3)-indola-6 (1,3)-pyridazinacycloundecaphane- 12-yl)-6-((S)-1-methoxyethyl) pyridin-3-yl)-3-oxa-9-azabicyclo[3.3.1] non-6-ene-9-carboxylate
- ring closure, isolated yield ([5]; cc_pd bond, Pd(dppf)Cl2.DCM/K3PO4, toluene/dioxane/H2O 3:1:1, 205.0 mM, 80.0 °C): 49%

Molecule: benzyl 4-(5-((3′S,3′S,4′S,Z)-4′-((tert-butoxycarbonyl) amino)-3′-ethoxy-1′-(2-isopropoxyethyl)-5′, 7′-dioxospiro[cyclopropane-1,10′-8-oxa-2 (4,2)-thiazola-1 (5,3)-indola-6 (1,3)-pyridazinacycloundecaphan]-2′-yl)-6-((S)-1-methoxyethyl) pyridin-3-yl) piperazine-1-carboxylate
- ring closure, isolated yield ([5]; cc_pd bond, XPhos-Pd-G3/XPhos/K3PO4, toluene/1,4-dioxane/H2O 3:1:1, 28.0 mM, 65.0 °C): 27%

Molecule: benzyl 4-(5-((6^3S,3S,4S,Z)-4-((tert-butoxycarbonyl) amino)-3-ethoxy-1^1-(2-isopropoxyethyl)-10,10-dimethyl-5,7-dioxo-6^1,6^2,6^3,6^4,6^5,6^6-hexahydro-1^1H-8-oxa-2 (4,2)-thiazola-1 (5,3)-indola-6 (1,3)- pyridazinacycloundecaphane-12-yl)-6-((S)-1-methoxyethyl) pyridin-3-yl) piperazine-1-carboxylate
- ring closure, isolated yield ([5]; cc_pd bond, Pd(dtbpf)Cl2/K3PO4, toluene/1,4-dioxane/H2O 3:1:1, 16.0 mM, 65.0 °C): 44%

Molecule: benzyl 4-((((6^3S,3S,4S,Z)-4-((tert-butoxycarbonyl) amino)-1^1-ethyl-1^2-(2-((S)-1-methoxyethyl) pyridin-3-yl)-10,10-dimethyl-5,7-dioxo-6^1,6^2,6^3,6^4,6^5,6^6-hexahydro-1^1H-8-oxa-2 (4,2)-thiazola-1 (5,3)-indola-6 (1,3)-pyridazinacycloundecaphane-3-yl)oxy) methyl)-3,6-dihydropyridine-1 (2H)-carboxylate
- ring closure, isolated yield ([5]; cc_pd bond, Pd(dtbpf)Cl2/K3PO4, toluene/dioxane/H2O, 60.0 °C): 32%

Molecule: benzyl 5-((6^3S,3S,4S,Z)-4-((tert-butoxycarbonyl) amino)-3-ethoxy-1^1-ethyl-10, 10-dimethyl-5,7-dioxo-6^1,6^2,6^3,6^4,6^5,6^6-hexahydro-1^1H-8-oxa-2 (4,2)-thiazola-1 (5,3)-indola-6 (1,3)-pyridazinacycloundecaphane-12-yl)-6-((S)-1-methoxyethyl)-3′, 6′-dihydro-[3,4′-bipyridine]-1′ (2′H)-carboxylate
- ring closure, isolated yield ([5]; cc_pd bond, Pd(dtbpf)Cl2/K3PO4, toluene/1,4-dioxane/H2O 3:1:1, 40.7 mM, 70.0 °C): 39%

Molecule: tert-butyl ((2^2R,6^3S,4S)-1^1-ethyl-1^2-(2-((S)-1-methoxyethyl) pyridin-3-yl)-22-(methoxymethyl)-10,10-dimethyl-5,7-dioxo-2^1,2^2,2^3,2^6,6^1,6^2,6^3,6^4,6^5,6^6-decahydro-1^1H-8-oxa-1 (5,3)-indola-6 (1,3)-pyridazina-2 (5,1)-pyridinacycloundecaphane-4-yl) carbamate
- ring closure, isolated yield ([5]; cc_pd bond, Pd(dppf)Cl2/K3PO4, toluene/dioxane/H2O, […], 70.0 °C): 30%

Molecule: tert-butyl ((6^3S,3S,4S,Z)-3-(2,2-difluoroethoxy)-1^1-ethyl-1^2-(2-((S)-1-methoxyethyl) pyridin-3-yl)-10,10-dimethyl-5,7-dioxo-6^1,6^2,6^3,6^4,6^5,6^6-hexahydro-1^1H-8-oxa-2 (4,2)-thiazola-1 (5,3)-indola-6 (1,3)-pyridazinacycloundecaphane-4-yl) carbamate
- ring closure, isolated yield ([5]; cc_pd bond, Pd(dtbpf)Cl2/K3PO4, toluene/dioxane/H2O, 10.0 mM, 60.0 °C): 59%

Molecule: tert-butyl ((6^3S,3S,4S,Z)-3-ethoxy-1^1-ethyl-1^2-(2-((S)-1-methoxyethyl) pyridin-3-yl)-10, 10-dimethyl-5,7-dioxo-6^1,6^2,6^3,6^4,6^5,6^6-hexahydro-1^1H-8-oxa-2 (4,2)-thiazola-1 (5,3)-indola-6 (1,3)-pyridazinacycloundecaphane-4-yl) carbamate
- ring closure, isolated yield ([5]; cc_pd bond, Pd(dtbpf)Cl2/K3PO4, toluene/dioxane/H2O, 26.7 mM, 60.0 °C): 31%

Molecule: tert-butyl ((6^3S,4S)-2^3-((tert-butyldiphenylsilyl)oxy)-1^1-ethyl-1^2-(2-((S)-1-methoxyethyl) pyridin-3-yl)-10,10-dimethyl-5,7-dioxo-2^1,2^2,2^3,2^6,6^1,6^2,6^3,6^4,6^5,6^6-decahydro-1^1H-8-oxa-1 (5,3)-indola-6 (1,3)- pyridazina-2 (5,1)-pyridinacycloundecaphane-4-yl) carbamate
- ring closure, isolated yield ([5]; cc_pd bond, Pd(dppf)Cl2/K2CO3, toluene/1,4-dioxane/H2O 3:1:1, 20.0 mM, 65.0 °C): 42%

Molecule: tert-butyl ((6^3S,4S)-25-(difluoromethyl)-1^1-ethyl-1^2-(2-((S)-1-methoxyethyl) pyridin-3-yl)-10,10-dimethyl-5,7-dioxo-6^1,6^2,6^3,6^4,6^5,6^6-hexahydro-1^1H-8-oxa-1 (5,3)-indola-6 (1,3)-pyridazina-2 (1,3)-benzenacycloundecaphane-4-yl) carbamate
- ring closure, isolated yield ([5]; ester bond, EDCI/HOBt/DIEA, DCM): 51%

Molecule: tert-butyl ((6^3S,4S,Z)-1^1-ethyl-1^2-(2-((S)-1-methoxyethyl) pyridin-3-yl)-10,10-dimethyl-5,7-dioxo-6^1,6^2,6^3,6^4,6^5,6^6-hexahydro-1^1H-8-oxa-2 (2,4)-oxazola-1 (5,3)-indola-6 (1,3)-pyridazinacycloundecaphane-4-yl) carbamate
- ring closure, isolated yield ([5]; cc_pd bond, XPhos Pd G3/XPhos/K3PO4, dioxane/H2O 5:1, 55.0 mM, 70.0 °C): 56%

Molecule: tert-butyl ((6^3S,4S,Z)-1^1-ethyl-1^2-(2-((S)-1-methoxyethyl) pyridin-3-yl)-21, 10, 10-trimethyl-5,7-dioxo-6^1,6^2,6^3,6^4,6^5,6^6-hexahydro-11H,21H-8-oxa-1 (5,3)-indola-6 (1,3)-pyridazina-2 (5,3)-triazolacycloundecaphane-4-yl) carbamate
- ring closure, isolated yield ([5]; cc_pd bond, XPhos Pd G3/XPhos/K3PO4, dioxane/H2O 5:1, 71.7 mM, 75.0 °C): 56.8%
